Experimental data from ChEMBL document CHEMBL1201862, “PubChem BioAssay data set” (2004).
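48-hour exposure; five concentrations; linearly interpolated endpoints. GI50: concentration for 50% inhibition of growth.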 Activity calls are given as the source filed them. Rule as the data show it: active = GI50 up to about 1.1 µM and inactive = higher.

Legend:
Experiment in all cases: inhibition of tumour cell growth, NCI panel, 48 h
[1] = system: RXF 631
[2] = system: M19-MEL
[3] = system: LXFL 529
[4] = system: SNB-78
[5] = system: HOP-18
[6] = system: DMS-114
[7] = system: XF498
[8] = system: DMS-273
[9] = system: KM-20L2

Row | Compound | GI50 [1] | GI50 [2] | GI50 [3] | GI50 [4] | GI50 [5] | GI50 [6] | GI50 [7] | GI50 [8] | GI50 [9]
1 | CCCCCCCCCc1cc(=O)c2ccc(O)cc2o1 | 46.2 µM (inactive) | > 100 µM (inactive) | 41.7 µM (inactive) | 38.9 µM (inactive) | > 100 µM (inactive) | 11.3 µM (inactive) | 86.5 µM (inactive) | 46.8 µM (inactive) | > 100 µM (inactive)
2 | Cn1c(=O)nc2n(-c3cc(C(F)(F)F)cc(C(F)(F)F)c3)c3ccccc3nc-2c1=O | – | 13.8 µM (inactive) | – | > 100 µM (inactive) | – | 26.3 µM (inactive) | > 100 µM (inactive) | 45.7 µM (inactive) | > 100 µM (inactive)
3 | O=C1c2c(nc3ccccc3c2-c2ccccc2)CN1Nc1ccccc1 | – | > 100 µM (inactive) | > 100 µM (inactive) | – | – | > 100 µM (inactive) | > 100 µM (inactive) | – | > 100 µM (inactive)
4 | COC(=O)C1=C(c2ccc3c(c2)OCO3)OC(c2ccc3c(c2)OCO3)C1 (configuration not stated) | > 100 µM (inactive) | > 100 µM (inactive) | 38.4 µM (inactive) | > 100 µM (inactive) | 69.7 µM (inactive) | 30.1 µM (inactive) | > 100 µM (inactive) | > 100 µM (inactive) | > 100 µM (inactive)
5 | COc1ccc2nc(NC(=O)C(=O)NNC(=O)c3ccncc3)sc2c1 | – | > 100 µM (inactive) | > 100 µM (inactive) | > 100 µM (inactive) | > 100 µM (inactive) | > 100 µM (inactive) | > 100 µM (inactive) | – | > 100 µM (inactive)
6 | CC(C)=CC(C(O)c1ccccc1)S(=O)(=O)c1nccn1C (configuration not stated) | > 100 µM (inactive) | > 100 µM (inactive) | > 100 µM (inactive) | – | > 100 µM (inactive) | > 100 µM (inactive) | > 100 µM (inactive) | > 100 µM (inactive) | > 100 µM (inactive)
7 | COC12CCC(=O)C=C1c1ccccc1N2C(C)=O (configuration not stated) | – | > 100 µM (inactive) | > 100 µM (inactive) | > 100 µM (inactive) | > 100 µM (inactive) | > 100 µM (inactive) | > 100 µM (inactive) | > 100 µM (inactive) | > 100 µM (inactive)
8 | COc1cc(CC(C(=O)O)C(=O)O)c(OC)cc1CC(C(=O)O)C(=O)O | – | > 100 µM (inactive) | > 100 µM (inactive) | > 100 µM (inactive) | – | > 100 µM (inactive) | > 100 µM (inactive) | > 100 µM (inactive) | > 100 µM (inactive)
9 | Cc1nn(C)cc1P(=S)(c1ccccc1)c1ccccc1 | – | 59.3 µM (inactive) | 51.3 µM (inactive) | 51.2 µM (inactive) | > 100 µM (inactive) | 30.9 µM (inactive) | > 100 µM (inactive) | 31.6 µM (inactive) | > 100 µM (inactive)
10 | COc1cc(C2c3cc4c(cc3[C@@H](OCCN(C)C)C3COC(=O)[C@H]23)OCO4)cc(OC)c1O (some centres not stated) | 0.0655 µM (active) | – | 2.79 µM (inactive) | 5.13 µM (inactive) | 0.42 µM (active) | – | 0.239 µM (active) | 0.052 µM (active) | 0.855 µM (active)
11 | COc1c2c(cc3nc4ccccc4nc13)CCC(C(C)(C)O)C2 (configuration not stated) | – | > 100 µM (inactive) | > 100 µM (inactive) | > 100 µM (inactive) | 86.5 µM (inactive) | – | > 100 µM (inactive) | 63.4 µM (inactive) | > 100 µM (inactive)
12 | O=C1C2C3C=CC(C2C(=O)N1CN1CCOCC1)C1C2C(=O)N(CN4CCOCC4)C(=O)C2C31 (configuration not stated) | 11.5 µM (inactive) | 22.9 µM (inactive) | 19.6 µM (inactive) | 32.9 µM (inactive) | 22.1 µM (inactive) | 16.2 µM (inactive) | – | 18.2 µM (inactive) | 27.4 µM (inactive)
13 | COc1ccc(/C=C2/CCCC/C2=N/O)cc1 | > 100 µM (inactive) | > 100 µM (inactive) | 66.8 µM (inactive) | 94.2 µM (inactive) | > 100 µM (inactive) | 42.6 µM (inactive) | – | 42.7 µM (inactive) | > 100 µM (inactive)
14 | C/C(=N\O)c1sc(-n2nc(-c3ccccc3)cc2-c2ccccc2)nc1C | 14.8 µM (inactive) | 13.3 µM (inactive) | 11.7 µM (inactive) | 29.8 µM (inactive) | > 10 µM (inactive) | 12.4 µM (inactive) | > 10 µM (inactive) | 22.5 µM (inactive) | 11.5 µM (inactive)
15 | O=C1C(O)=C(CN(CCCl)CCCl)C(=O)c2ccccc21 | 87.9 µM (inactive) | 54.6 µM (inactive) | 48.3 µM (inactive) | 70.8 µM (inactive) | – | – | > 100 µM (inactive) | – | 28.7 µM (inactive)
16 | CC(C)(C)c1cc(COc2c3sc(=S)sc3c(OCc3cc(C(C)(C)C)cc(C(C)(C)C)c3)c3sc(=S)sc23)cc(C(C)(C)C)c1 | – | > 100 µM (inactive) | > 100 µM (inactive) | – | > 100 µM (inactive) | – | > 100 µM (inactive) | > 100 µM (inactive) | > 100 µM (inactive)
17 | CCCCN(C)CC(C(C)=O)C(c1ccccc1)c1c(O)c2ccccc2oc1=O (configuration not stated) | – | > 100 µM (inactive) | > 100 µM (inactive) | > 100 µM (inactive) | > 100 µM (inactive) | > 100 µM (inactive) | > 100 µM (inactive) | > 100 µM (inactive) | > 100 µM (inactive)
18 | C=C[C@]1(C)CCC2=C(CCC3C2(C)CCC[C@@]3(C)COC(C)=O)C1 (some centres not stated) | 16.7 µM (inactive) | 21.7 µM (inactive) | 17.5 µM (inactive) | 18.7 µM (inactive) | 25.9 µM (inactive) | 22 µM (inactive) | 19.9 µM (inactive) | – | 17.5 µM (inactive)
19 | CC1CC2(CC[C@@H]1O)OCCO2 (some centres not stated) | > 100 µM (inactive) | > 100 µM (inactive) | > 100 µM (inactive) | > 100 µM (inactive) | – | – | > 100 µM (inactive) | > 100 µM (inactive) | –
20 | CCOC(=O)C(=O)Nc1ccc(Cl)c(C(F)(F)F)c1 | > 100 µM (inactive) | > 100 µM (inactive) | > 100 µM (inactive) | > 100 µM (inactive) | > 100 µM (inactive) | > 100 µM (inactive) | – | > 100 µM (inactive) | > 100 µM (inactive)
21 | O=C1OC(c2ccccc2)=N/C1=C/C=C/c1ccco1 | > 100 µM (inactive) | > 100 µM (inactive) | > 100 µM (inactive) | > 100 µM (inactive) | – | > 100 µM (inactive) | > 100 µM (inactive) | – | > 100 µM (inactive)
22 | O=C(Nc1ccccc1-c1nn(CO)c(=S)n(CO)c1=O)C(F)(F)F | – | – | > 100 µM (inactive) | > 100 µM (inactive) | – | > 100 µM (inactive) | > 100 µM (inactive) | > 100 µM (inactive) | –
23 | COc1ccc(/C=c2\sc3n(c2=O)C(N)=C(C#N)C(c2ccc(OC)cc2)C=3c2nc3ccccc3[nH]2)cc1 (configuration not stated) | – | 28.7 µM (inactive) | – | – | – | 30.8 µM (inactive) | – | 33.4 µM (inactive) | 42.2 µM (inactive)
24 | COc1c(Cl)c2c(c(OC)c1OC)-c1ccc(OC)c(=O)c(Cl)c1C(NC(C)=O)CC2 (configuration not stated) | 0.473 µM (active) | 0.262 µM (active) | 0.243 µM (active) | 0.36 µM (active) | – | 0.224 µM (active) | 0.34 µM (active) | 0.116 µM (active) | 0.12 µM (active)
